One test addresses T1, human DP1 receptor (Homo sapiens, UniProt Q13258).
T1 construct: tissue Biological Specialty Corporation; host or cells: human platelets, membranes
T1 sequence (Q13258 1-359): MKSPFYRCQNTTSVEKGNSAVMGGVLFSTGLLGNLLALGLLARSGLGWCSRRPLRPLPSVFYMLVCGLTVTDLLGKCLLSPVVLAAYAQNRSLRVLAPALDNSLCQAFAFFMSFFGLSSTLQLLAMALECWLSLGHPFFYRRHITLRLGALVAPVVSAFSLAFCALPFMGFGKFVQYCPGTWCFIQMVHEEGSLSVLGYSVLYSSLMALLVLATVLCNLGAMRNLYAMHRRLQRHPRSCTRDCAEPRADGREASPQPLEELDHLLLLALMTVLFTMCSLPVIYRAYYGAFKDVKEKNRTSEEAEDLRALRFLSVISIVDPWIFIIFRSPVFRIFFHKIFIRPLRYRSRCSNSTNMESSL
The experiment in a line: DP1 radioligand membrane binding assay using [3H]BWA868C. To be noted: [3H]BWA868C binding, human platelet membranes; read-out: hDP1. How it is done: The ability of a compound to bind to the human DP1 receptor was evaluated via a radioligand membrane binding assay using the DP1 selective synthetic ligand [^3H]BWA868C. Packed human platelets (Biological Specialty Corporation), were resuspended in 6 volumes of Hepes/HBSS buffer (10 mM Hepes, 1 mM DTT in Hanks Balanced Salt Solution (HBSS)), lysed and centrifuged at 75,000×g to pellet the membranes. Membranes were resuspended in Hepes/HBSS buffer to approximately 12 mg protein/ml. Membranes (20 μg protein/well) are incubated in 96-well plates with 2 nM [^3H]BWA868C and test compound in Assay Buffer (50 mM Hepes, 10 mM MnCl2, 1 mM EDTA, plus or minus 0.2% human serum albumin, pH 7.4) for 60 minutes at room temperature. The reactions are terminated by rapid filtration through Whatman GF/C glass fibre filter plates. The filter plates were pre-soaked in […] polethylenimine for 30 minutes at room temperature then washed in Wash Buffer (50 mM Hepes, 0.5 M NaCl pH 7.4) prior to harvesting. After harvesting, the filter plates are washed 3 times with 1 ml cold Wash Buffer then dried. Scintillant is then added to the plates and the radioactivity retained on the filters is determined on a Packard TopCount (Perkin Elmer). Specific binding is determined as total radioactive binding minus non-specific binding in the presence of 10 μM BWA868C. IC50s were determined using GraphPad prism analysis of drug titration curves.

In test [1] the target is T2, recombinant human CRTH2 receptor (Homo sapiens, UniProt Q9Y5Y4).
T2 construct: expressed in transfected cells
T2 sequence (Q9Y5Y4 1-395): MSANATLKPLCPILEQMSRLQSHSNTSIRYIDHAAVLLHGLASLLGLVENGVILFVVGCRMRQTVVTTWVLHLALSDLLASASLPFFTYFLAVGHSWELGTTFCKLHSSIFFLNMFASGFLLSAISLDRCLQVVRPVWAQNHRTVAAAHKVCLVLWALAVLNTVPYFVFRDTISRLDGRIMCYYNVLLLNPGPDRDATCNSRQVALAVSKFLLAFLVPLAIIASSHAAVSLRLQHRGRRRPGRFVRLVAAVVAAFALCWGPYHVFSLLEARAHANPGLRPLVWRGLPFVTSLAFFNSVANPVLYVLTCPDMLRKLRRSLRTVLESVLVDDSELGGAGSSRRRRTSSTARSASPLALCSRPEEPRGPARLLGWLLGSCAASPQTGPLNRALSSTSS
Briefly: GTPγS binding assay. The class given is biochemical. To be noted: +HSA; CHO cell membranes, 80 nM PGD2; read-out: hDP2 GTPγS μM (+HSA). How it is done: The ability of a compound to inhibit binding of GTP to DP2 is assessed via a membrane GTPγS assay. CHO cells stably expressing the recombinant human CRTH2 receptor are resuspended in 10 mM Hepes, 7.4 containing 1 mM DTT, lysed and centrifuged at 75,000×g to pellet the membranes. The membranes are resuspended in 10 mM Hepes, 7.4 containing 1 mM DTT and 10% glycerol. […] The reactions are terminated by rapid filtration through Whatman GF/B glass fibre filter plates. The filter plates are washed 3 times with 1 ml cold Assay Buffer and dried. Scintillant is then added to the plates and the radioactivity retained on the filters is determined on a Packard TopCount (Perkin Elmer). Specific binding is determined as total radioactive binding minus non-specific binding in the absence of the ligand (80 nM PGD2). IC50s were determined using Graphpad prism analysis of drug titration curves.

A further test concerns the target T3, human DP2 receptor (Homo sapiens, UniProt Q9Y5Y4).
T3 construct: expressed in transfected cells
T3 sequence (Q9Y5Y4 1-395): T2 sequence (Q9Y5Y4 1-395)
Briefly: DP2/CRTH2 radioligand binding assay using [3H]PGD2. Conditions: [3H]PGD2 binding, membranes of HEK293 cells expressing recombinant human DP2; read-out: hDP2. The protocol: The ability of a compound to bind to the human DP2 receptor is assessed via a radioligand binding assay using [^3H]PGD2. HEK293 cells stably expressing recombinant human DP2 are resuspended in 10 mM Hepes, 7.4 containing 1 mM DTT, lysed and centrifuged at 75,000×g to pellet the membranes. The membranes are resuspended in 10 mM Hepes, 7.4 containing 1 mM DTT and 10% glycerol to approximately 5 mg protein/ml. Membranes (2-10 μg protein/well) are incubated in 96-well plates with 1 nM [^3H]PGD2 and test compound in Assay Buffer (50 mM Hepes, 10 mM MnCl2, 1 mM EDTA, plus or minus 0.2% human serum albumin, pH 7.4) for 60 minutes at room temperature. The reactions are terminated by rapid filtration through Whatman GF/C glass fibre filter plates. The filter plates were pre-soaked in 0.33% polythylenimine for 30 minutes at room temperature then washed in Wash Buffer (50 mM Hepes, 0.5 M NaCl pH 7.4) prior to harvesting. After harvesting, the filter plates are washed 3 times with 1 ml cold Wash Buffer then dried. Scintillant is then added to the plates and the radioactivity retained on the filters is determined on a Packard TopCount (Perkin Elmer). Specific binding is determined as total radioactive binding minus non-specific binding in the presence of 10 μM PGD2. IC50s were determined using GraphPad prism analysis of drug titration curves.

Regarding `COc1ccc(CC(=O)O)cc1-c1ccc(C(F)(F)F)cc1CN(C)C(C)=O` [Compound 1-1, {2′-[(Acetyl-methyl-amino)-methyl]-6-methoxy-4′-trifluoromethyl-biphenyl-3-yl}-acetic acid], the IC50 on human DP1 receptor is greater than 1000 nM; in test [1] it was less than 0.3 µM; at human DP2 receptor, less than 300 nM.
Taken in the same sequence, the figures for `CCN(Cc1cc(C(F)(F)F)ccc1-c1cc(CC(=O)O)ccc1OC)C(C)=O` [Compound 1-2, {2′-[(Acetyl-ethyl-amino)-methyl]-6-methoxy-4′-trifluoromethyl-biphenyl-3-yl}-acetic acid] were greater than 1000 nM, less than 0.3 µM and less than 300 nM.
Taken in the same sequence, the figures for `COc1ccc(CC(=O)O)cc1-c1ccc(C(F)(F)F)cc1CN(CC(F)(F)F)C(C)=O` [Compound 1-4, (2′-{[Acetyl-(2,2,2-trifluoro-ethyl)-amino]-methyl}-6-methoxy-4′-trifluoromethyl-biphenyl-3-yl)-acetic acid] were greater than 1000 nM, less than 0.3 µM and less than 300 nM.
With `CCN(Cc1cc(NC(C)=O)ccc1-c1cc(CC(=O)O)ccc1OC)C(=O)OCc1ccccc1` [Compound 1-153, {4′-Acetylamino-2′-[(benzyloxycarbonyl-ethyl-amino)-methyl]-6-methoxy-biphenyl-3-yl}-acetic acid], the IC50 on human DP1 receptor was greater than 1000 nM; on human DP2 receptor it was less than 300 nM.
In the same order, the values of `CCN(Cc1cc(NS(C)(=O)=O)ccc1-c1cc(CC(=O)O)ccc1OC)C(=O)OCc1ccccc1` [Compound 1-155, {2′-[(Benzyloxycarbonyl-ethyl-amino)-methyl]-4′-methanesulfonylamino-6-methoxy-biphenyl-3-yl}-acetic acid] are greater than 1000 nM and less than 300 nM.
Taken in the same sequence, the figures for `CCN(Cc1cc(C(F)(F)F)ccc1-c1cc(CC(=O)O)ccc1OC)C(=O)NCc1cc(Cl)cc(Cl)c1` [Compound 1-165, {2′-[3-(3,5-Dichloro-benzyl)-1-ethyl-ureidomethyl]-6-methoxy-4′-trifluoromethyl-biphenyl-3-yl}-acetic acid] were greater than 1000 nM and less than 300 nM.
Taken in the same sequence, the figures for `CCN(Cc1cc(C(F)(F)F)ccc1-c1cc(CC(=O)O)ccc1OC)C(=O)NCc1ccc(F)cc1` [Compound 1-176, {2′-[1-Ethyl-3-(4-fluoro-benzyl)-ureidomethyl]-6-methoxy-4′-trifluoromethyl-biphenyl-3-yl}-acetic acid] were greater than 1000 nM and less than 300 nM.
On to `CCN(Cc1cc(C(F)(F)F)ccc1-c1cc(CC(=O)O)ccc1OC)C(=O)NCc1cccc(Cl)c1` [Compound 1-177, {2′-[3-(3-Chloro-benzyl)-1-ethyl-ureidomethyl}-6-methoxy-4′-trifluoromethyl-biphenyl-3-yl}-acetic acid], for which the IC50 was greater than 1000 nM on human DP1 receptor and less than 300 nM at human DP2 receptor.
Taken in the same sequence, the figures for `CCN(Cc1cc(C(F)(F)F)ccc1-c1cc(CC(=O)O)ccc1OC)C(=O)NCc1cc(F)cc(F)c1` [Compound 1-178, {2′-[3-(3,5-Difluoro-benzyl)-1-ethyl-ureidomethyl]-6-methoxy-4′-trifluoromethyl-biphenyl-3-yl}-acetic acid] were greater than 1000 nM and less than 300 nM.
Taken in the same sequence, the figures for `CCN(Cc1cc(C(F)(F)F)ccc1-c1cc(CC(=O)O)ccc1OC)C(=O)N[C@H](C)c1ccc(Cl)cc1` [Compound 1-179, (2′-{3-[(R)-1-(4-Chloro-phenyl)-ethyl]-1-ethyl-ureidomethyl}-6-methoxy-4′-trifluoromethyl-biphenyl-3-yl)-acetic acid] were greater than 1000 nM and less than 300 nM.
Taken in the same sequence, the figures for `CCN(Cc1cc(C(F)(F)F)ccc1-c1cc(CC(=O)O)ccc1OC)C(=O)N[C@@H](C)c1ccc(Cl)cc1` [Compound 1-180, (2′-{3-[(S)-1-(4-Chloro-phenyl)-ethyl]-1-ethyl-ureidomethyl}-6-methoxy-4′-trifluoromethyl-biphenyl-3-yl)-acetic acid] were greater than 1000 nM and less than 300 nM.
In the case of `CCNC(=O)N(CC)Cc1cc(C(F)(F)F)ccc1-c1cc(CC(=O)O)ccc1OC` [Compound 1-181, [2′-(1,3-Diethyl-ureidomethyl)-6-methoxy-4′-trifluoromethyl-biphenyl-3-yl]-acetic acid], the IC50 is greater than 1000 nM at human DP1 receptor and less than 300 nM at human DP2 receptor.
In the same order, the values of `CCN(Cc1cc(F)ccc1-c1cc(CC(=O)O)ccc1OC)C(=O)OCc1ccccc1` [Compound 1-183, {2′-[(Benzyloxycarbonyl-ethyl-amino)-methyl]-4′-fluoro-6-methoxy-biphenyl-3-yl}-acetic acid] are greater than 1000 nM and less than 300 nM.
For `CCN(Cc1cc(F)ccc1-c1cc(CC(=O)O)ccc1OC)C(C)=O` [Compound 1-184, {2′-[(Acetyl-ethyl-amino)-methyl]-4′-fluoro-6-methoxy-biphenyl-3-yl}-acetic acid], the values for the IC50 at human DP1 receptor and at human DP2 receptor were greater than 1000 nM and less than 300 nM, respectively.
With `CCN(Cc1cc(F)ccc1-c1cc(CC(=O)O)ccc1OC)C(=O)NCc1ccc(Cl)cc1` [Compound 1-185, {2′-[3-(4-Chloro-benzyl)-1-ethyl-ureidomethyl]-4′-fluoro-6-methoxy-biphenyl-3-yl}-acetic acid], the IC50 was greater than 1000 nM on human DP1 receptor and less than 300 nM at human DP2 receptor.
Turning to `CCN(Cc1cc(F)ccc1-c1cc(CC(=O)O)ccc1OC)C(=O)NCc1ccccc1` [Compound 1-187, [2′-(3-Benzyl-1-ethyl-ureidomethyl)-4′-fluoro-6-methoxy-biphenyl-3-yl]-acetic acid], the IC50 on human DP1 receptor was greater than 1000 nM; at human DP2 receptor it was less than 300 nM.
For the compound `CCN(Cc1cc(C(F)(F)F)ccc1-c1cc(CC(=O)O)ccc1O)C(=O)NCc1ccccc1` [Compound 1-220, [2′-(3-Benzyl-1-ethyl-ureidomethyl)-6-hydroxy-4′-trifluoromethyl-biphenyl-3-yl]-acetic acid], the IC50 in test [1] was less than 0.3 µM; on human DP2 receptor, less than 300 nM.
In the same order, the values of `CCN(Cc1cc(C(F)(F)F)ccc1-c1cc(CC(=O)O)ccc1OC)C(=O)C(C)C` [Compound 1-246, {2′-[(Ethyl-isobutyryl-amino)-methyl]-6-methoxy-4′-trifluoromethyl-biphenyl-3-yl}-acetic acid] are less than 0.3 µM and less than 300 nM.

Values taken from patent US20110098352A1, “N,N-DISUBSTITUTED AMINOALKYLBIPHENYL ANTAGONISTS OF PROSTAGLANDIN D2 RECEPTORS” (AMIRA PHARMACEUTICALS, INC., priority 2008, published 2011).
